# Assay results taken from patent publication US9131648B2, “Genes encoding chavicol/eugenol synthase from the creosote bush Larrea tridentata” (Washington State University, priority 2006, dated 2015).
# Entries after “also recorded” stand apart in the source; their conditions may differ. Read-outs that look alike come from different tables or passages of the source.
# T1: PLR_Tp1 (Thuja plicata, UniProt Q9LD14)
# T1 sequence (Q9LD14 1-313): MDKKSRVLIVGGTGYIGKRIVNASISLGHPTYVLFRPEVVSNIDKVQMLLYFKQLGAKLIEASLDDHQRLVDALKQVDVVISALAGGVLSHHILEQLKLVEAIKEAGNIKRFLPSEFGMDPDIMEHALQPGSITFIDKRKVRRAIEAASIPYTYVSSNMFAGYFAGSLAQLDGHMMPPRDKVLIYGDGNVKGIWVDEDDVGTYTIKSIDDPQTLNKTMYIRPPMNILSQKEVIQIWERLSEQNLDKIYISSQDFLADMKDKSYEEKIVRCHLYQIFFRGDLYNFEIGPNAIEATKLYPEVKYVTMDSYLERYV
# T2: ObEGS1 (Ocimum basilicum, UniProt Q15GI4)
# T2 sequence (Q15GI4 1-314): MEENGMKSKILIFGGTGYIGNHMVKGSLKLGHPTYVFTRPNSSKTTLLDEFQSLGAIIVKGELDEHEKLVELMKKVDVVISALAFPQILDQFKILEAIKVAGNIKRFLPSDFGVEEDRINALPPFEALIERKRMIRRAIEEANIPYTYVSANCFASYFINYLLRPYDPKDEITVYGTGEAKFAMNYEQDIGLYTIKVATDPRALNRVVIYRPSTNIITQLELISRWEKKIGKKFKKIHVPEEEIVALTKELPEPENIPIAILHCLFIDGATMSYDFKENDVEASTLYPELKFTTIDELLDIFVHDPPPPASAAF
# T3: PhIGS1 (Petunia hybrida, UniProt Q15GI3)
# T3 sequence (Q15GI3 1-323): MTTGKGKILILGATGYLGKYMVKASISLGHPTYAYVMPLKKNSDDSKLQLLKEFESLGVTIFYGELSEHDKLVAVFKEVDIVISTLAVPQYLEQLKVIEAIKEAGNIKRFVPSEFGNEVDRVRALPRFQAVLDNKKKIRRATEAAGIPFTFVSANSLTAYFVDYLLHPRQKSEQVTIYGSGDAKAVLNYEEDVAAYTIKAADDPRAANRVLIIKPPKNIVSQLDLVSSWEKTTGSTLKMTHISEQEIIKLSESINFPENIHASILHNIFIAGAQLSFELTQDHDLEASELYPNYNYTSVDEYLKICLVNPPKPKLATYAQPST
# B1: LtPLRh1 (LtCES1) (Larrea tridentata) (protein)
# chain: MAQKSKILIIGGTGYIGKFVVEASAKAGRPTFALVRESTVSDPVKGKLIANFKNLGVNILHGDLNDHESLVKAIKKVDVVISTVGNFQIADQVKIIAAIKAAGNVKRFFPSEFGNDVDRTHAVEPAKSTFEMKAQLRRTIEAEGIPYTYVSSNFFAGYFLPVLGQVGVTAPPRDKVTILGDGNQKAVFNKEDDIGTYTIRAADDPRTLNKILYIRPPRNTYSMNELVALWEKKIGKTLEKTYVPEEQLLKNIQEAEIPWNVVLAINHSVFVKGDHTNFAIKPSFGVEASELYPDVKYTTVEEYLSQFV
# B2: LtPLRh1: pinoresinol-lariciresinol reductase homologue from Larrea tridentata, chavicol/eugenol synthase, SEQ ID NO:2, recombinant 34 kDa (protein)
# chain: B1 chain
# modifications: Larrea tridentate
# Tests used:
# PLR_Tp1 = target: T1, PLR_Tp1; conditions: Kim et al., manuscript in preparation (34), cited from earlier work
# [1] = system: basil CS/ES and petunia IES; conditions: range over basil CS/ES and petunia IES, cited from earlier work
# LtPLRh1 (LtCES1) [2] = target: T4, LtPLRh1 (LtCES1) (Larrea tridentata, UniProt V5NR15); experiment: LtPLRh1 (LtCES1) chavicol/eugenol synthase assays, kinetic parameters for monolignol ester substrates; format: biochemical; conditions: for Km values / Vmax values: PLR homologue in the creosote bush; for Vmax / kcat: Table 2, LtPLRh1 apparent
# Description: (§1) Enzymatic assays. All assays were performed at 30° C. in 250 μl of the corresponding buffered solutions (at 100 mM buffer concentration) containing 0.5 μg […]1) Rh1 and 1.0 mM NADPH, and were terminated by addition of 25 μl glacial acetic acid and freezing. […] Assays were carried out for 1 to 120 min; controls included both boiled enzyme extracts and omission of substrates. Kinetic parameters (Km and Vmax): Three sets of triplicate assays were carried out for 5 min in Bis-Tris propane buffer at pH 7.55, and contained different concentrations of p-coumaryl acetate (48), p-coumaryl coumarate (50) or coniferyl acetate (49) (3.2 μM-1 mM).
# ObEGS1 = target: T2, ObEGS1; conditions: cited from earlier work; for Vmax / kcat: ObEGS1
# PhIGS1 = target: T3, PhIGS1; conditions: cited from earlier work; for Vmax / kcat: PhIGS1
# LtPLRh1 (LtCES1) [3] = target: T4, LtPLRh1 (LtCES1); experiment: In vitro test of LtPLRh1 with PLR, PCBER and IFR substrates; format: biochemical
# [4] = substrate: CC(=O)OC/C=C/c1ccc(O)cc1; experiment: LtPLRh1 (LtCES1) chavicol/eugenol synthase assays, kinetic parameters for monolignol ester substrates; format: biochemical, Larrea tridentata; conditions: other: Table 1, Bis-Tris propane pH 7.55, 30° C., 1.0 mM NADPH, apparent values
# Description: as §1
# [5] = substrate: COc1cc(/C=C/COC(C)=O)ccc1O; experiment: as above; format: biochemical, Larrea tridentata; conditions: other: Table 1, Bis-Tris propane pH 7.55, 30° C., 1.0 mM NADPH, apparent values
# Description: as §1
# [6] = substrate: O=C(/C=C/c1ccc(O)cc1)OC/C=C/c1ccc(O)cc1; experiment: as above; format: biochemical, Larrea tridentata; conditions: other: Table 1, Bis-Tris propane pH 7.55, 30° C., 1.0 mM NADPH, apparent values
# Description: as §1
# [7] = Characterisation of recombinant LtPLRh1: pH optimum and efficiency versus homologues; format: biochemical, Larrea tridentata; conditions: from previously reported kinetic parameters (26)
# Description: Enzymatic assays. All assays were performed at 30° C. in 250 μl of the corresponding buffered solutions (at 100 mM buffer concentration) containing 0.5 μg LtPL LtPLRh1 (LtCES1) Rh1 and 1.0 mM NADPH, and were terminated by addition of 25 μl glacial acetic acid and freezing. Chavicol/eugenol synthase activity assays were individually performed in Bis-Tris propane buffer (pH 7.55) containing 0.4 mM p-coumaryl coumarate (50), p-coumaryl acetate (48) or coniferyl acetate (49). Assays were carried out for 1 to 120 min; controls included both boiled enzyme extracts and omission of substrates.
# Kinetic parameters (Km and Vmax): Three sets of triplicate assays were carried out for 5 min in Bis-Tris propane buffer at pH 7.55, and contained different concentrations of p-coumaryl acetate (48), p-coumaryl coumarate (50) or coniferyl acetate (49) (3.2 μM-1 mM).
molecule,measurement,setting,value
"COc1cc([C@H]2OC[C@@H]3C(c4cc(OC)c(O)c(OC)c4)OC[C@H]23)ccc1O (some centres unmarked) [medioresinol (69), medioresinol]",PLR-catalyzed reduction (serves as substrate),PLR_Tp1,uses several p-hydroxylated phenylpropanoid substrates
same,PLR-catalyzed reduction (serves as substrate),PLR_Tp1; listed as Medioresinol (69),additional PLR substrates
"COc1cc(/C=C/COC(C)=O)ccc1O [coniferyl acetate (49), coniferyl acetate]",Vmax,[1],7-20 pkat μg^−1 protein
same,Km,[1]; read-out: substrate affinities (Km),1.6 to 5.1 mM
same,efficiency of reduction by LtPLRh1 relative to reported homologues in basil and petunia,LtPLRh1 (LtCES1) [2],> 100 fold
same,Km values,LtPLRh1 (LtCES1) [2],a few hundred
same,Vmax values,LtPLRh1 (LtCES1) [2],a few hundred
same,Vmax,LtPLRh1 (LtCES1) [2],190 pkat/μg
same,kcat,LtPLRh1 (LtCES1) [2],6.46 s⁻¹
same,Km,"ObEGS1; Table 1, ObEGS1, Koeduka et al. 2006",5.1 mM
same,Vmax,ObEGS1; Table 1,20 pkat μg^−1 prot.
same,kcat,ObEGS1; Table 1,0.7 s⁻¹
same,Km,"ObEGS1; Table 2, ObEGS1, as reported in (26)",5.1 mM
same,Vmax,ObEGS1; Table 2,20 pkat/μg
same,kcat,ObEGS1; Table 2,0.7 s⁻¹
same,Km,"PhIGS1; Table 1, PhIGS1, Koeduka et al. 2006",1.6 mM
same,Vmax,PhIGS1; Table 1,7 pkat μg^−1 prot.
same,kcat,PhIGS1; Table 1,0.3 s⁻¹
same,Km,"PhIGS1; Table 2, PhIGS1, as reported in (26)",1.6 mM
same,Vmax,PhIGS1; Table 2,7 pkat/μg
same,kcat,PhIGS1; Table 2,0.3 s⁻¹
"O=c1c(-c2ccc(O)cc2)coc2cc(O)cc(O)c12 [genistein (73), genistein]",activity of LtPLRh1 towards the compound as substrate,LtPLRh1 (LtCES1) [3],at best marginal activity; also recorded: do not serve as substrates
"CC(=O)OC/C=C/c1ccc(O)cc1 [p-coumaryl acetate (48), p-coumaryl acetate]",Km values,LtPLRh1 (LtCES1) [2],a few hundred
same,Vmax values,LtPLRh1 (LtCES1) [2],a few hundred
same,Vmax,LtPLRh1 (LtCES1) [2],200 pkat/μg
same,kcat,LtPLRh1 (LtCES1) [2],6.80 s⁻¹
"C[C@@H]1[C@H](C)[C@@H](c2ccc(O)cc2)O[C@@H]1c1ccc(O)cc1 [larreatricin (62), larreatricin]",activity of LtPLRh1 towards the compound as substrate,LtPLRh1 (LtCES1) [3],at best marginal activity
"c1cc2c(cc1[C@H]1OC[C@H]3[C@@H]1CO[C@@H]3c1ccc3c(c1)OCO3)OCO2 [sesamin (71), sesamin]",PLR-catalyzed reduction (serves as substrate),PLR_Tp1,fails to reduce; also recorded: does not undergo PLR-catalyzed reduction
"COc1cc([C@H]2OC[C@H]3[C@@H]2CO[C@@H]3c2cc(OC)c(O)c(OC)c2)cc(OC)c1O [syringaresinol (70), syringaresinol]",PLR-catalyzed reduction (serves as substrate),PLR_Tp1,uses several p-hydroxylated phenylpropanoid substrates; also recorded: additional PLR substrates
"C/C=C/c1cc(OC)c2c(c1)[C@H](C)[C@@H](c1ccc(O)c(OC)c1)O2 [licarin A (64), licarin A]",activity of LtPLRh1 towards the compound as substrate,LtPLRh1 (LtCES1) [3],at best marginal activity
pinoresinol [pinoresinol (54)],PLR-catalyzed reduction (serves as substrate),PLR_Tp1,uses several p-hydroxylated phenylpropanoid substrates
same,activity of LtPLRh1 towards the compound as substrate,LtPLRh1 (LtCES1) [3],at best marginal activity
"COc1ccc(-c2coc3cc(O)cc(O)c3c2=O)cc1 [biochanin A (74), biochanin A]",activity of LtPLRh1 towards the compound as substrate,LtPLRh1 (LtCES1) [3],at best marginal activity; also recorded: do not serve as substrates
"COc1cc(C2Oc3c(OC)cc(/C=C/CO)cc3C2CO)ccc1O (centres unmarked) [dehydrodiconiferyl alcohol (56), dehydrodiconiferyl alcohol]",activity of LtPLRh1 towards the compound as substrate,LtPLRh1 (LtCES1) [3],at best marginal activity
"O=C(/C=C/c1ccc(O)cc1)OC/C=C/c1ccc(O)cc1 [p-coumaryl coumarate (50), p-coumaryl coumarate]",Km values,LtPLRh1 (LtCES1) [2],a few hundred
same,Vmax values,LtPLRh1 (LtCES1) [2],a few hundred
same,Vmax,LtPLRh1 (LtCES1) [2],75 pkat/μg
same,kcat,LtPLRh1 (LtCES1) [2],2.55 s⁻¹
"COc1cc([C@H]2O[C@@H](c3ccc(O)c(OC)c3)[C@H](C)[C@@H]2C)ccc1O [nectandrin B (72), nectandrin B]",activity of LtPLRh1 towards the compound as substrate,LtPLRh1 (LtCES1) [3],at best marginal activity; also recorded: do not serve as substrates
B1,Km,[4],350 µM
same,Vmax,[4],12 µmol/min/mg
same,kcat,[4],6.8 s⁻¹
same,kcat/Km,[4],19500 M⁻¹ s⁻¹
same,Km,[5],290 µM
same,Vmax,[5],11.4 µmol/min/mg
same,kcat,[5],6.46 s⁻¹
same,kcat/Km,[5],22000 M⁻¹ s⁻¹
same,Km,[6],210 µM
same,Vmax,[6],4.5 µmol/min/mg
same,kcat,[6],2.55 s⁻¹
same,kcat/Km,[6],12000 M⁻¹ s⁻¹
B2,efficiency/activity relative to the enzymes reported in basil and petunia,[7],> 100 fold
same,efficiency/activity relative to the enzymes reported in basil and petunia,[7]; listed as LtPLRh1 (LtCES1),over 100 fold
